One molecule from PMC11943725, “Construction of a Plasmid-Free Escherichia coli Strain with Enhanced Heme Supply to Produce Active Hemoglobins” (Metabolites, 2025) can be followed below.

For this test, the target named is T1, human hemoglobin (hHb) (Homo sapiens, UniProt P68871+P69905).
T1 construct: gene HBA1; tetramer
In words: peroxidase activity of purified protein with TMB Chromogen Solution, OD370. The class given is biochemical. As to conditions: chromogenic peroxidase substrate; holo fraction incomplete.

T1 sequence (P69905 2-142): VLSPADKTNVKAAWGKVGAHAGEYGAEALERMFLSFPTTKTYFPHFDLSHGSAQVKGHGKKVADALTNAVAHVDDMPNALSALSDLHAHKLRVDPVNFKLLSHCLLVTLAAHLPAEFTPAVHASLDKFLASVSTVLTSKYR
T1 sequence (P68871 2-147): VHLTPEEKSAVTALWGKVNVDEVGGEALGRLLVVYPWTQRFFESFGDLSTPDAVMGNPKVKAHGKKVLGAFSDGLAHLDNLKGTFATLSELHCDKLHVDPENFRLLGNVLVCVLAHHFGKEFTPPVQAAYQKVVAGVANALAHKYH

Turning to `Cc1cc(-c2cc(C)c(N)c(C)c2)cc(C)c1N` [TMB], the “peroxidase activity of purified protein with TMB Chromogen Solution, OD370” value is listed as “The peroxidase activities of purified proteins were detected using TMB Chromogen Solution”.
